Measurements published in ChEMBL document CHEMBL1157631, “Discovery and SAR of thiazolidine-2,4-dione analogues as insulin-like growth factor-1 receptor (IGF-1R) inhibitors via hierarchical virtual screening” (J Med Chem, 2010).
Activity calls are given as the source filed them. The calls are words filed in the database; no cut-off is given here.

Key:
[1] = biological target: Insulin-like growth factor 1 receptor (Homo sapiens, UniProt P08069); experiment: Inhibition of IGF1R by ELISA
Insulin receptor = Insulin receptor (Homo sapiens, UniProt P06213); experiment: Inhibition of IR by ELISA
Chain of Insulin receptor (P06213 28-758 limits assumed): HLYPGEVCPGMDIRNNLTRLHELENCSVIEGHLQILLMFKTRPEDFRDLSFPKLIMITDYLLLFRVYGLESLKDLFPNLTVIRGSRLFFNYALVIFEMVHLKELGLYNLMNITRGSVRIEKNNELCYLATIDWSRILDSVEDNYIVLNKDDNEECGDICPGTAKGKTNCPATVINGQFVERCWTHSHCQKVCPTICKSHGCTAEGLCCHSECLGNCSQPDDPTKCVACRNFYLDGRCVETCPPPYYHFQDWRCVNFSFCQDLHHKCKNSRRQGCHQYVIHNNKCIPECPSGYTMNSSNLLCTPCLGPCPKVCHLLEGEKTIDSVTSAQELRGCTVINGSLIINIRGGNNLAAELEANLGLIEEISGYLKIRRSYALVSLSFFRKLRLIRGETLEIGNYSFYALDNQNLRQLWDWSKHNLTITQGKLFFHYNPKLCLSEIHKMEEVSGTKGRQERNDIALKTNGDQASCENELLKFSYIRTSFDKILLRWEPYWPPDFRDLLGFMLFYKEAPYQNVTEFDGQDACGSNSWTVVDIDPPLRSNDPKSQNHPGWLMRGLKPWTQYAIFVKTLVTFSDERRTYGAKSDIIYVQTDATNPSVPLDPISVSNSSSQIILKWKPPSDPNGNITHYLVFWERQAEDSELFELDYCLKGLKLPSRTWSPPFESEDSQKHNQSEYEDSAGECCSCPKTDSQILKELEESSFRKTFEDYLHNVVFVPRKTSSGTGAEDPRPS
Chain of Insulin receptor (P06213 763-1382 limits assumed): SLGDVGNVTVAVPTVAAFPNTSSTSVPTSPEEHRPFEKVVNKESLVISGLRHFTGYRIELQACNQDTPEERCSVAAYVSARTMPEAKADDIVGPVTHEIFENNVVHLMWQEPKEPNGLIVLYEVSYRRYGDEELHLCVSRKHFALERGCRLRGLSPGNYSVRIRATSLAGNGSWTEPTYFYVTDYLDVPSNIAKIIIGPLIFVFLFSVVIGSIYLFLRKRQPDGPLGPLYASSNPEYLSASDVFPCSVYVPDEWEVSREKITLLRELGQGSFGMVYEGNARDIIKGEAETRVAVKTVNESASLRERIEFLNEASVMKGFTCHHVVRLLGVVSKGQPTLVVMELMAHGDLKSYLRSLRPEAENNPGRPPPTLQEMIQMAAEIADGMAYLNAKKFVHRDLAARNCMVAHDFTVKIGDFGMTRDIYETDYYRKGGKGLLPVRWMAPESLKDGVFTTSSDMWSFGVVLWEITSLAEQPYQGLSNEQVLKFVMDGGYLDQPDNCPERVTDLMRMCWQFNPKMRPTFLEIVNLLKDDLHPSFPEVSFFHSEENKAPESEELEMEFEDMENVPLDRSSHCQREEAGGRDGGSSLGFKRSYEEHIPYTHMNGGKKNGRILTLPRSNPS

MCF7 = experiment: Antiproliferative activity against human MCF7 cells after 72 hrs by SRB assay; assay type: functional, cell-based; details: MCF7, 72 h
[2] = biological target: Proto-oncogene tyrosine-protein kinase Src (Homo sapiens) (UniProt P12931); experiment: Inhibition of c-Src at 10 uM
Chain of Proto-oncogene tyrosine-protein kinase Src (Homo sapiens) (P12931 2-536 limits assumed): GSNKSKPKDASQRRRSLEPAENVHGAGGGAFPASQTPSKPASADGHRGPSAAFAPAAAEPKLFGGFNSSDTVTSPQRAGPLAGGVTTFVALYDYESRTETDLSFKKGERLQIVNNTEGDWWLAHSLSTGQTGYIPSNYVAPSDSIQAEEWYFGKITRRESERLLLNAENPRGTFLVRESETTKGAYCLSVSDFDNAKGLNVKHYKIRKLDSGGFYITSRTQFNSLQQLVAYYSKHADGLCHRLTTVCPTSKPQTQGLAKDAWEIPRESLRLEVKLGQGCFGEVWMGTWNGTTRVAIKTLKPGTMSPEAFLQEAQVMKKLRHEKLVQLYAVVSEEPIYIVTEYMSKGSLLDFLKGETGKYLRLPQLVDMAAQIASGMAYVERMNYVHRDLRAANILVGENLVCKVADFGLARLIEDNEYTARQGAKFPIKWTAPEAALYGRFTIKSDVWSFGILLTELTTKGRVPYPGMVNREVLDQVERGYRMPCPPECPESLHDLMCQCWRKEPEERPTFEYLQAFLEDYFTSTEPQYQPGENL

[3] = Dissociation constant, pKa of the compound; assay type: physicochemical

Chain of Insulin-like growth factor 1 receptor (P08069 31-736 limits assumed): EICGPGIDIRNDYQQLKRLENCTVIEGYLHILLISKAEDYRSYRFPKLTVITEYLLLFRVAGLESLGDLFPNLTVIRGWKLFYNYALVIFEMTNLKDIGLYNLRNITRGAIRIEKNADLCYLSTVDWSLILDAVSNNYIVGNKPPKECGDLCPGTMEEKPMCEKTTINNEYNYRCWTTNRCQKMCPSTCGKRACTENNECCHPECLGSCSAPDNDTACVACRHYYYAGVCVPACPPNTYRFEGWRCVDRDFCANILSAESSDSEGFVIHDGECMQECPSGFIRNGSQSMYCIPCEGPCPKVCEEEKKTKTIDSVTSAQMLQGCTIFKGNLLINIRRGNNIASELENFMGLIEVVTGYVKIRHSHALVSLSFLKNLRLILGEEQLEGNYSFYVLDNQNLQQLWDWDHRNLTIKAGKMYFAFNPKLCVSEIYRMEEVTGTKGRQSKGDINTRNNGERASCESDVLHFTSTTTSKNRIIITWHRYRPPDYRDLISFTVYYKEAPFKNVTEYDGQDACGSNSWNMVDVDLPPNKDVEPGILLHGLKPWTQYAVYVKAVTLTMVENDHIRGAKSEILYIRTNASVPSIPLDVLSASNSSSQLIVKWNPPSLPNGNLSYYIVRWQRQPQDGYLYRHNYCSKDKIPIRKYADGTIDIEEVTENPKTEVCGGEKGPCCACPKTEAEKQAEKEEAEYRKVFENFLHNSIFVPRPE
Chain of Insulin-like growth factor 1 receptor (P08069 741-1367 limits assumed): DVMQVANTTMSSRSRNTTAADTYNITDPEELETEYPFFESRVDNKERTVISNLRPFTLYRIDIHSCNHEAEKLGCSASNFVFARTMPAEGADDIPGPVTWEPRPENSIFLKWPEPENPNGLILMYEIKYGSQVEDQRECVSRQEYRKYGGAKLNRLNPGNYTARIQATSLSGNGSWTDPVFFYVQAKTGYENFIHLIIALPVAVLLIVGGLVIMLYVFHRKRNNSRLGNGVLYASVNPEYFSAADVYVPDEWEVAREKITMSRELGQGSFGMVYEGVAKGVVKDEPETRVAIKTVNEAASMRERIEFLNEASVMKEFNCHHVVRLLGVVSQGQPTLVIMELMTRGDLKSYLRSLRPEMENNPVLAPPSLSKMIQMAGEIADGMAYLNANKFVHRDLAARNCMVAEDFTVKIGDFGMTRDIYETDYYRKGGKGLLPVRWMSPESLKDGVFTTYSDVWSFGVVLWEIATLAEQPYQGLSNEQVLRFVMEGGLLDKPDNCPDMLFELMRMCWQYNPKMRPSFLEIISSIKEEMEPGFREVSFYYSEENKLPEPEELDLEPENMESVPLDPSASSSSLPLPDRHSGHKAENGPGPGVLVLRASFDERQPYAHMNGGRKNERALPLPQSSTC

| SMILES | IC50 [1] [µM] | IC50 (Insulin receptor) [µM] | IC50 (MCF7) [µM] | Activity [2] | pKa [3] |
| --- | --- | --- | --- | --- | --- |
| O=C1NC(=O)/C(=C\c2ccc(-c3cccc(Cl)c3Cl)o2)S1 | 3.4 | > 100 | 21.5 | – | – |
| O=C1NC(=O)/C(=C\c2ccc(Cl)c(Cl)c2)S1 | 8.8 | > 100 | 50.8 | – | – |
| CCOc1ccc(/C=C2\SC(=O)NC2=O)cc1OCC(C)C | 63.9 | – | – | – | – |
| CCCOc1c(Br)cc(/C=C2\SC(=O)NC2=O)cc1OCC | > 100 | – | – | – | – |
| O=C1NC(=O)/C(=C\c2ccc(N3CCCC3)c(F)c2)S1 | > 100 | – | – | – | – |
| COc1cc(/C=C2/SC(=O)NC2=O)cc(I)c1O | 6.3 | > 100 | 50.8 | – | – |
| CCOc1cc2c(cc1/C=C1\SC(=O)NC1=O)OCO2 | 10 | > 100 | > 100 | – | – |
| O=C1NC(=O)/C(=C/c2ccc(Cl)cc2Cl)S1 | 15 | > 100 | > 100 | – | – |
| O=C1NC(=O)/C(=C\c2ccc(OCc3ccccc3Cl)cc2)S1 | > 100 | – | – | – | – |
| O=C1NC(=O)/C(=C\c2ccc(-c3ccc(Cl)cc3Cl)o2)S1 | – | – | 17.3 | – | – |
| O=C1NC(=O)/C(=C\c2ccc(-c3ccc(F)cc3)o2)S1 | 0.4 | > 100 | 36.9 | – | – |
| CCc1ccc(/C=C2\SC(=O)NC2=O)cc1 | 11.1 | > 100 | – | – | – |
| COc1cc(/C=C2/SC(=O)NC2=O)ccc1OCc1ccccc1 | > 100 | – | – | – | – |
| CCOc1cc(/C=C2\SC(=O)NC2=O)c(Br)cc1OC | > 100 | – | – | – | – |
| Cc1ccc(N2CCC(N3CCN(C(=O)N4CCOCC4)CC3)CC2)c2[nH]c(-c3c(N[C@@H](CO)Cc4ccccc4Br)cc[nH]c3=O)nc12 | 0.009 | – | – | – | – |
| O=C1NC(=O)/C(=C\c2cccc([N+](=O)[O-])c2)S1 | 4.9 | > 100 | 55.8 | – | – |
| O=C1NC(=O)/C(=C\c2ccccc2OCc2ccc(Cl)cc2Cl)S1 | > 100 | – | – | – | – |
| O=C1NC(=S)S/C1=C\c1ccc(-c2ccccc2Cl)o1 | – | – | > 100 | – | – |
| O=C1NC(=O)/C(=C\c2ccc(-c3cccc(Br)c3)o2)S1 | 0.057 | 28 | 25.3 | – | – |
| Cc1ccc(-c2ccc(/C=C3/SC(=O)NC3=O)o2)c(Br)c1 | 6.3 | > 100 | – | – | – |
| O=C1NC(=O)/C(=C/c2cccc(OCc3ccc(Cl)cc3Cl)c2)S1 | 1.6 | > 100 | 25.2 | – | – |

| SMILES | IC50 [1] [µM] | IC50 (Insulin receptor) [µM] | IC50 (MCF7) [µM] | Activity [2] | pKa [3] |
| --- | --- | --- | --- | --- | --- |
| CCOc1cc(/C=C2/SC(=O)NC2=O)cc(Br)c1O | 5.2 | > 100 | 56.3 | – | – |
| CCC(C)COc1ccccc1/C=C1/SC(=O)NC1=O (stereo not given) | 9 | > 100 | > 100 | – | – |
| COc1cc(/C=C2\SC(=O)NC2=O)ccc1OCc1ccc(Cl)cc1Cl | > 100 | – | – | – | – |
| CCC(=O)c1cccc(Nc2ccc3c(c2)/C(=C/Nc2ccc(N4CCN(C)CC4)cc2)C(=O)NC3=O)c1 | 0.319 | – | – | – | – |
| COc1cc(Br)cc(/C=C2\SC(=O)NC2=O)c1O | – | > 100 | – | Active | – |
| CCOc1ccc(/C=C2/SC(=O)NC2=O)cc1OC | – | > 100 | 87.3 | – | – |
| O=C1NC(=O)/C(=C\c2cc3c(cc2Br)OCO3)S1 | 3.3 | > 100 | 24.8 | – | – |
| CCOc1cc(Br)cc(/C=C2\SC(=O)NC2=O)c1O | – | > 100 | – | – | – |
| O=C1NC(=O)/C(=C/c2ccc(-c3ccc(O)c(C(=O)O)c3)o2)S1 | – | – | 81.3 | – | – |
| O=C1NC(=O)/C(=C\c2ccc(-c3ccc(Br)cc3)o2)S1 | 6.7 | > 100 | 47.3 | – | – |
| O=C1NC(=O)/C(=C\c2ccc(-c3ccc(F)c(Cl)c3)o2)S1 | 0.28 | > 100 | 16.9 | – | – |
| CCOc1cc(/C=C2/SC(=O)NC2=O)cc(Cl)c1OCC | 49.8 | – | – | – | – |
| O=C1NC(=S)S/C1=C\c1ccc(-c2ccc(C(=O)O)cc2)o1 | – | – | 41.9 | – | – |
| O=C1NC(=O)/C(=C/c2ccccc2F)S1 | 6.6 | > 100 | > 100 | – | – |
| CCOc1cccc(/C=C2/SC(=O)NC2=O)c1O | 8.6 | > 100 | > 100 | – | – |
| CCCCOc1ccc(/C=C2\SC(=O)NC2=O)cc1 | > 100 | – | – | – | – |
| COc1cc(/C=C2/SC(=O)NC2=O)cc(OC)c1O | 5.3 | > 100 | – | – | – |
| O=C1NC(=O)/C(=C\c2ccc(-c3ccc(Cl)c(Cl)c3)o2)S1 | – | – | 14.8 | – | 7.9 |
| COc1c(Br)cc(/C=C2\SC(=O)NC2=O)cc1Br | 6.4 | 65.3 | – | – | – |
| C=CCc1cc(/C=C2\SC(=O)NC2=O)cc(OC)c1OC | > 100 | – | – | – | – |
